Assay results from patent US8933111B2, “Crystalline form of (2S,4R)-5-biphenyl-4-yl-2-hydroxymethyl-2-methyl-4-[(1H-[1,2,3]triazole-4-carbonyl)-amino]-pentanoic acid 5-methyl-2-oxo-[1,3]dioxol-4-ylmethyl ester” (Theravance Biopharma R&D IP, LLC, priority 2012, dated 2015).

What was measured:
[1] = Dynamic moisture sorption (DMS) assessment; format: physicochemical
Description: Dynamic moisture sorption (DMS) measurements were performed using a VTI atmospheric microbalance, SGA-100 system (VTI Corp., Hialeah, Fla. 33016). A weighed sample was used and the relative humidity (RH) was set at the ambient value at the start of the analysis. The sample was subjected to an initial drying step (from 45% RH to 5% RH) followed by two cycles of adsorption (5% RH to 90% RH) and desorption (90% RH to 5% RH) experiments. The DMS analysis used a scan rate of 5% RH/step over the full humidity range of 5% (RH) to 90% RH. The DMS run was performed isothermally at 25° C.

[2] = Thermogravimetric analysis (TGA); format: physicochemical; details: heating rate of 10° C. from ambient to 220° C., nitrogen purge
Description: Thermogravimetric analysis (TGA) measurements were performed using a TA Instruments Model Q-50 module equipped with high resolution capability. Data were collected using TA Instruments Thermal Analyst controller and analyzed using TA Instruments Universal Analysis software. A weighed sample was placed onto a platinum pan and scanned with a heating rate of 10° C. from ambient temperature to 220° C. The balance and furnace chambers were purged with nitrogen flow during use.

- hygroscopicity (DMS profile) ([1]; 5% RH to 90% RH, two adsorption/desorption cycles, 25° C.): non-hygroscopic
- moisture picked up during the adsorption segment ([1]; adsorption from 5% RH to 90% RH, isothermal at 25° C.): less than 0.1 % by weight
- solid form after the DMS experiment (PXRD of post-DMS sample) ([1]; after two moisture sorption-desorption cycles): no change in the form
- temperature until which the TGA trace shows no weight loss [2]: about 200 °C
SMILES: Cc1oc(=O)oc1COC(=O)[C@](C)(CO)C[C@@H](Cc1ccc(-c2ccccc2)cc1)NC(=O)c1c[nH]nn1 [crystalline compound, (2S,4R)-5-biphenyl-4-yl-2-hydroxymethyl-2-methyl-4-[(1H-[1,2,3]triazole-4-carbonyl)-amino]-pentanoic acid 5-methyl-2-oxo-[1,3]dioxol-4-ylmethyl ester]
